Data on six molecules can be found in US10941137B2, “Difluoromethyl-phenyl triazoles” (Boehringer Ingelheim International GmbH, priority 2018, dated 2021).

The structures appear in SMILES notation. pEC50, pKi: −log10 of the molar value.

Series [1] has as its target T1, α5β2γ2 GABAA receptor (Homo sapiens, UniProt P18507+P31644).
T1 sequence (P31644 32-462): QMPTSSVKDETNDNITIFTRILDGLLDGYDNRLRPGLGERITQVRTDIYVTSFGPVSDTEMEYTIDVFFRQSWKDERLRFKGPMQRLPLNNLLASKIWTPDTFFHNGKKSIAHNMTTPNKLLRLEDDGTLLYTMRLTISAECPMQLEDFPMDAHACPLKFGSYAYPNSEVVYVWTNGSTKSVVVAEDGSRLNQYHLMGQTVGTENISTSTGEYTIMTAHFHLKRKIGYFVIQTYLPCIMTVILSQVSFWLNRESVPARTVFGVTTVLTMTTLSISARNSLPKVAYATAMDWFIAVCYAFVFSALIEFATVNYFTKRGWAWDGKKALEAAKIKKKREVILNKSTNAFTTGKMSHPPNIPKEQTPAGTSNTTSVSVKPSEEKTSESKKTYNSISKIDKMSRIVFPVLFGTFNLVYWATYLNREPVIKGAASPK
T1 sequence (P18507 40-376 limits assumed): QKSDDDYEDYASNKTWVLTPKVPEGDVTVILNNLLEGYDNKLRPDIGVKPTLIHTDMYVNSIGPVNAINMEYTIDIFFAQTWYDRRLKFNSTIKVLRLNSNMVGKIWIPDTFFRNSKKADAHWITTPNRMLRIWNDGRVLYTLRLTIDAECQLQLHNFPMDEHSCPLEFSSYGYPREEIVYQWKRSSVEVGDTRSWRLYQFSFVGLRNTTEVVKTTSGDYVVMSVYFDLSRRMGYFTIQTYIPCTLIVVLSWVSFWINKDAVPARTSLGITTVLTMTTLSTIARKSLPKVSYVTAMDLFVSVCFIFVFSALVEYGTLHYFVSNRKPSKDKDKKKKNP
In words: Assay B: modulation of α5β2γ2 GABAA receptor, two-electrode voltage clamp in oocytes. Type of series: cell-based. To be noted: for pEC50: oocytes, TEVC, co-application with GABA 0.5 μM (EC5-20), read-out: Assay B: GABAA α5β3γ2 EC50. The protocol: Assay B: In vitro evaluation of modulation of α5β2γ2 GABAA receptor.
Modulatory efficacy of compounds of formula (I) is determined electrophysiological recordings in oocytes using the two-electrode voltage clamp (TEVC) technique. Oocytes are injected with cRNA for human GABAA receptor subunits α5, β2 and γ2 in a 3:1:3 ratio and modulatory efficacy is evaluated by co-applications with a submaximal EC5-20 GABA concentration (0.5 μM) termed GABA control. As a standard, the compounds are tested in five concentrations (3.16, 0.316, 0.0316, 0.00316 and 0.000316 μM) on each oocyte starting with the lowest concentration. Background subtracted peak current amplitudes are normalized to the respective GABA control current, converted to % change and depicted +/−S.E.M. as a function of increasing compound concentrations. Plotted datapoints are fitted to the empirical Hill equation using non-linear regression. 95% confidence intervals for maximal efficacy (Bottom) and potency (Log EC50) are derived from this fitting routine.
A general note: In two-electrode clamp one electrode senses voltage and the other passes current.

For series [2], the system named is human MDR1 P-gp. In words: Efflux in MDCK cells transfected with the human MDR1 gene (MDCK-PGP permeability). Type of series: in vitro ADME, canine. To be noted: dog, pH 7.4, 37° C.; for efflux ratio: PEBA/PEAB; for Papp A→B: apical-to-basal apparent permeability (PEAB). As for the experimental part: Assessment of Efflux in Madin-Darby Canine Kidney (MDCK) Cells Transfected with the 30 Human MDR1 Gene to Assess Brain Penetration (Drug Metabolism and Disposition February 2008, 36 (2) 268-275; DOI: https://doi.org/10.1124/dmd.107.017434) Apparent permeability coefficients (PE) of the compounds across the MDCK-MDR1 cell monolayers are measured (pH 7.4, 37° C.) in apical-to-basal (AB) and basal-to-apical (BA) transport direction. AB permeability (PEAB) represents drug absorption from the blood into the 35 brain and BA permeability (PEBA) drug efflux from the brain back into the blood via both passive permeability as well as active transport mechanisms mediated by efflux and uptake transporters that are expressed on the MDCK-MDR1 cells, predominantly by the overexpressed human MDR1 P-gp. The compounds are assigned to permeability/absorption classes by comparison of the AB permeabilities with the AB permeabilities of reference compounds with known in vitro permeability and oral absorption in the human. Identical or similar permeabilities in both transport directions indicate passive permeation, vectorial permeability points to additional active transport mechanisms. Higher PEBA than PEAB indicates the involvement of active efflux mediated by MDR1 P-gp. Active transport is concentration-dependently saturable.
MDCK-MDR1 cells (1-2×10e5 cells/1 cm2 area) are seeded on filter inserts (Costar transwell polycarbonate or PET filters, 0.4 μm pore size) and cultured (DMEM) for 7 days. Subsequently, the MDR1 expression is boosted by culturing the cells with 5 mM sodium butyrate in full medium for 2 days. Compounds are dissolved in appropriate solvent (like DMSO, 1-20 mM stock solutions). Stock solutions are diluted with HTP-4 buffer (128.13 mM NaCl, 5.36 mM KCl, 1 mM MgSO4, 1.8 mM CaCl2, 4.17 mM NaHCO3, 1.19 mM Na2HPO4×7H2O, 0.41 mM NaH2PO4xH2O, 15 mM HEPES, 20 mM glucose, 0.25% BSA, pH 7.4) to prepare the transport solutions (0.1-300 μM compound, final DMSO <=0.5%). The transport solution (TL) is applied to the apical or basolateral donor side for measuring A-B or B-A permeability (3 filter replicates), respectively. The receiver side contains the same buffer as the donor side. Samples are collected at the start and end of experiment from the donor and at various time intervals for up to 2 hours also from the receiver side for concentration measurement by HPLC-MS/MS or scintillation counting. Sampled receiver volumes are replaced with fresh receiver solution.

The nature of series [3]: Metabolic stability in human liver microsomes (Human MST). Type of series: in vitro ADME. As to conditions: pooled human liver microsomes, pH 7.6; human liver microsomes 1 mg/mL, 1 μM compound, NADPH 1 mM, 37° C.; read-out: Human MST t1/2. As for the experimental part:
Assessment of Metabolic Stability in Human Liver Microsomes (Human MST) The metabolic stability of the compounds according to the invention may be investigated as follows: The metabolic degradation of the test compound is assayed at 37° C. with pooled human liver microsomes. The final incubation volume of 100 μL per time point contains TRIS buffer pH 7.6 at room temperature (0.1 M), MgCl2 (5 mM), microsomal protein (1 mg/mL) and the test compound at a final concentration of 1 μM. Following a short pre-incubation period at 37° C., the reactions are initiated by addition of beta-nicotinamide adenine dinucleotide phosphate, reduced form (NADPH, 1 mM), and terminated by transferring an aliquot into solvent after different time points. After centrifugation (10000 g, 5 min), an aliquot of the supernatant is assayed by LCMS/MS for the amount of parent compound. The half-life (t½) is determined by the slope of the semi-logarithmic plot of the concentration-time profile.

The target in series [4] is T2, human GABAA α5β3γ2s receptor (Homo sapiens, UniProt P18507+P31644).
T2 sequence (P18507 1-475): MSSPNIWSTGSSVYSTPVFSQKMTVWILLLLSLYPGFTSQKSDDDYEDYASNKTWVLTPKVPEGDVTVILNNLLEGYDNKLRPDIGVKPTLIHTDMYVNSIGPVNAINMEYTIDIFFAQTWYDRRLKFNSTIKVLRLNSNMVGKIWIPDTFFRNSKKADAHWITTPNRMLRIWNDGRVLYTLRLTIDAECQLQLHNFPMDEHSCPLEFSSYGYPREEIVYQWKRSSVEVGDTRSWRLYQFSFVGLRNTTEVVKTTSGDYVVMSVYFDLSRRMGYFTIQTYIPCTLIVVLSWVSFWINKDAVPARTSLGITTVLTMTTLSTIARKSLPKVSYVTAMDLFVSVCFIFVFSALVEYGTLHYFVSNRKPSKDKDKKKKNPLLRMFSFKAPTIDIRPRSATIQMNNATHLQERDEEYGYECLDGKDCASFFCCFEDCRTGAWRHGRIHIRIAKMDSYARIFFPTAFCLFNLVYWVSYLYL
T2 sequence (P31644 1-462): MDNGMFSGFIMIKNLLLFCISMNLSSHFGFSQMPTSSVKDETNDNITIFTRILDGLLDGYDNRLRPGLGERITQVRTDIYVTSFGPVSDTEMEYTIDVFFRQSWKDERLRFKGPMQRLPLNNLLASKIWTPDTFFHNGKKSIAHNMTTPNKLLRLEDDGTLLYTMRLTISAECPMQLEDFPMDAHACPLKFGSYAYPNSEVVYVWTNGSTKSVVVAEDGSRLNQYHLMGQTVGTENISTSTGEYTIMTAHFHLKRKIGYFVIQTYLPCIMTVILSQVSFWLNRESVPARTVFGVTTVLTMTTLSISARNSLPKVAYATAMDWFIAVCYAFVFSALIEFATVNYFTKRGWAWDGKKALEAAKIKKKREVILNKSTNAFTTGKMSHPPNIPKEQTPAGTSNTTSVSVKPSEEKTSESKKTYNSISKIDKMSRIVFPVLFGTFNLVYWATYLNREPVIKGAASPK
In words: Assay A: in vitro inhibition of 3H-flumazenil binding, HEK cells expressing human GABAA α5β3γ2s receptor. To be noted: 3H-flumazenil 1 nM, HEK-293 membranes, 40 min at 2° C.; Ki from IC50 by Cheng and Prusoff. As for the experimental part: HEK-293 cell lines with stable expression of recombinant human GABAA α5β3γ2s receptors (plasmid H46/E9/B10) are seeded in T175 polystyrene flasks or roller bottles (1700 cm^2, Fisher Scientific CCI-431191), and cultured (37 C, 5% CO˜) in Dulbecco's Modified Eagle Medium (DMEM) with GlutaMAX™ supplemented with 10% fetal bovine serum and one or both of the following antibiotics: hygromycin B ([…]; γ2 subunit) or G418 (0.5 mg/ml; […]).
When the cultures reach confluency, the DMEM is removed and the cells are washed (10 ml for T175 flasks; 50 ml for roller bottles) once in Dulbecco's Phosphate Buffered Saline (DPBS). Following addition of DPBS to the cultures (10 ml for T175 flasks; 100 ml for roller bottles) for approximately 5 min cells are easily detached from the surface by shaking or tapping the flask gently. The cell suspension is transferred to Falcon tubes and centrifuged at 23,500×g for 10 min at 2° C. The pellet is washed once in 15 ml Tris-citrate buffer (50 mM, pH 7.1) using an Ultra-Turrax homogenizer and centrifuged at 2° C. for 10 min at 27,000×g. The washed pellet is re-suspended in 15 ml Tris-citrate buffer and frozen at −80° C. until the day of the binding experiment.
On the day of the experiment the cell membrane preparation is thawed and centrifuged at 2° C. for 10 min at 27,000×g. The pellet is re-suspended, using an Ultra-Turrax homogenizer in Tris-citrate buffer, to 15-50 µg protein per assay and then used for binding assays.
Non-specific binding is determined using clonazepam (1 μM, final concentration).
All dilutions of test compounds and incubation of assay are performed in glass vials/96-vial plates. […] Compounds are dissolved in 100% DMSO (10 mM stock), diluted in 48% ethanol-water, and tested in triplicate in serial 1:3 or 1:10 dilutions. When screening large numbers of compounds only one concentration of each compound is tested in single wells. Reference compounds are not included routinely, but for each experiment performed total and nonspecific binding is compared to data obtained during validation of the assay.
Binding is either terminated by rapid filtration onto
1) Whatman GF/C glass fibre filters using a Brandel Cell harvester, followed by 5 washes with 1 ml ice-cold buffer or onto 2) UniFilter GF/C glass fibre filter plates using a Tomtec cell harvester, followed by washing with approximately 5 ml ice-cold buffer.
The amount of radioactivity on the filters is determined by conventional liquid scintillation counting using a
1) Tri-Garb™ counter (PerkinElmer Life and Analytical Sciences) for separate large filters or
2) Topcount™ counter (PerkinElmer Life and Analytical Sciences) for 96-well filter plates. Specific binding is total binding minus non-specific binding.
For screening purposes n is set to 1. The IC50 value is calculated from the concentration response curves by the non-linear regression method using the curve-fitting program GraphPad Prism. […]

For the molecule `Cc1nnn(-c2ccc(C(F)F)cc2)c1COc1ccc(-n2cnc(C#N)c2)nn1` [Example 1, 1-[6-({1-[4-(difluoromethyl)phenyl]-4-methyl-1H-1,2,3-triazol-5-yl}methoxy)pyridazin-3-yl]-1H-imidazole-4-carbonitrile], in series [1], the Assay B: GABAA α5β3γ2 Emax vs GABA was -23.3% and the pEC50 was 8.82. Moreover, in series [2], the efflux ratio came out at 2.6 and the apparent permeability from apical to basolateral (Papp A→B) worked out at 18.1 ×10⁻⁶ cm/s. The half-life at 1 μM in series [3] is more than 130 min.
As to `Cc1nnn(-c2ccc(C(F)F)cc2)c1COc1ccc(-c2ccn[nH]2)nn1` [Example 10], in series [1], the Assay B: GABAA α5β3γ2 Emax vs GABA is -18% and the negative logarithm of the EC50 (pEC50) was 8.24. In series [2], the efflux ratio worked out at 1.7 and the Papp A→B is 22.4 ×10⁻⁶ cm/s. The half-life at 1 μM in series [3] was more than 130 min.
Take `Cc1nnn(-c2ccc(C(F)F)cc2)c1COc1ccc(-c2cnccn2)nn1` [Example 13]: in series [1], the Assay B: GABAA α5β3γ2 Emax vs GABA is -23% and the pEC50 is 8.05. In series [2], the efflux ratio came to 0.5 and the Papp A→B worked out at 69 ×10⁻⁶ cm/s. Moreover, the half-life at 1 μM in series [3] is more than 130 min.
On to `Cc1nnn(-c2ccc(C(F)F)cc2)c1COc1ccc(-n2cnc([S+](C)[O-])c2)nn1` (stereo not shown) [Example 23], for which the pKi in series [4] was 9.57. In addition, in series [1], the Assay B: GABAA α5β3γ2 Emax vs GABA is -12% and the pEC50 was 8.70.
Regarding `Cc1nnn(-c2ccc(C(F)F)cc2)c1COc1ccc(-n2cncn2)nn1` [Example 28, 3-({1-[4-(difluoromethyl)phenyl]-4-methyl-1H-1,2,3-triazol-5-yl}methoxy)-6-(1H-1,2,4-triazol-1-yl)pyridazine], in series [1], the Assay B: GABAA α5β3γ2 Emax vs GABA was -25% and the pEC50 is 8.26. In addition, in series [2], the efflux ratio was 0.6 and the Papp A→B is 68.7 ×10⁻⁶ cm/s. In addition, in series [3], the half-life at 1 μM is more than 130 min.
`Cc1nnn(-c2ccc(C(F)F)cc2)c1COc1ccc(-n2nc(C#N)cc2C)nn1` [Example 34]: the pKi in series [4] is 10.46. In series [1], the Assay B: GABAA α5β3γ2 Emax vs GABA is -4.3%.

Usually pEC50 stands for the negative decadic logarithm of the EC50, by convention in mol/L. As usually defined, the efflux ratio is the permeability from basolateral to apical divided by that in the opposite direction, in the common usage. The term Papp A→B denotes the apparent permeability from the apical to the basolateral side of a cell layer. As usually defined, the pKi is the Ki on a negative log10 scale, so that one unit is a factor of ten. A higher pKi goes with a low Ki.
